Results reported in patent publication US9884012B2, “Use of PEDF-derived polypeptides for promoting muscle or tendon regeneration or arteriogenesis” (MacKay Memorial Hospital, priority 2012, dated 2018).
“And” between values parts separate entries of the source, which are not always exact repeats. Identical values can stand only once. Marks after values point to notes of the source that are not given here.

Key:
ischemic hindlimbs = assay: hindlimb ischemia model, laser Doppler perfusion imaging of limb blood perfusion; format: in vivo, C57BL/6 wild-type mice; conditions: for Ischemic/Non-ischemic Perfusion Ratio (%) 7 days: 7 days after surgery, 50 μl sustained-release alginate gel formulation, 10 μM peptide (Bolus: bolus formulation of 29-mer), single intramuscular injection to gracilis muscle; for Ischemic/Non-ischemic Perfusion Ratio (%) 21 days: 21 days after surgery; for Ischemic/Non-ischemic Perfusion Ratio (%) 21 days / Ischemic/Non-ischemic Perfusion Ratio (%) 28 days: sustained-release formulation (Bolus: bolus 29-mer), single intramuscular injection; for Ischemic/Non-ischemic Perfusion Ratio (%) 28 days: 28 days (four weeks) after surgery; for Ischemic/Non-ischemic Perfusion Ratio (%) Pre OP: before surgery (baseline); for Ischemic/Non-ischemic Perfusion Ratio (%) Pre OP / Ischemic/Non-ischemic Perfusion Ratio (%) Post OP: LDPI; for Ischemic/Non-ischemic Perfusion Ratio (%) Post OP: immediately after surgery
Protocol: (§1) 6-week-old female C57BL/6 wild-type mice were anesthetized by an intraperitoneal injection of a mixture of zoletil (6 mg/kg) and xylazine (3 mg/kg). Hair was removed from the hindquarter with a depilating cream. To establish hindlimb ischemia, unilateral external iliac and femoral arteries and veins were ligated, cut, and excised. After surgery, the mice were randomly assigned to several experimental groups (n=6, each group) and treated as follows. In the blank control group, the mice were treated with 50 μl of blank alginate gel, whereas in the bolus control group, the mice received the bolus formulation containing 29-mer. In the PEDF peptide/alginate gel treatment groups, the mice received 50 μl of the sustained-release formulation, which comprised either 29-mer, 24-mer, or 20-mer. Additionally, in a PEDF 18-mer control group, mice were treated with a sustained-release formulation containing a PEDF 18-mer peptide. Treatments were applied by way of a single intramuscular injection to the gracilis muscle immediately after femoral artery and vein excision operation. The incision was closed after the wound was irrigated with sterile saline.
A laser Doppler perfusion imaging (LDPI) analyzer (Moor Instruments, USA) was used to quantify hindlimb blood perfusion before surgery (pre OP), immediately after surgery (post OP), and over time after surgery. To minimize vasoconstriction by anesthetic heat loss, animals were kept on a heating plate at 37° C. for 5 min before measurement. Representative LDPI images illustrating the blood perfusion of ischemic hindlimbs over a time period of 4 weeks were provided in FIG. 2 in which dark blue color represents low blood flow. Blood perfusion is expressed as LDPI index representing the ratio of operated (ischemic) versus non-operated (non-ischemic) limb blood flow of the same mouse, and the results were summarized in FIG. 3 and Table 1 (n 6).

tibialis anterior muscle = assay: hindlimb ischemia model, tibialis anterior muscle necrosis/fibrosis and centrally nucleated fibers; format: in vivo, C57BL/6 wild-type mice; conditions: two weeks after surgery, sustained-release formulation (Bolus: bolus 29-mer)
Protocol: The gracilis, adductor magnus, soleus, and tibialis muscles were fixed in 4% paraformaldehyde, dehydrated with graded ethanol series, and paraffinized. Fixed samples were de-paraffinized in xylene and rehydrated in a graded series of ethanol. Tissues were sliced into 5-μm sections. General histology was performed using H&E dye.
To ascertain the number of centrally nucleated muscle fibers, sections were stained with H&E and then photographed as described above. At least 100 stained fibers were randomly chosen from each photo. Muscle fibers were judged centrally nucleated if one or more nuclei were not located at the periphery of the fiber. The data were expressed as a % of the total number of muscle fibers counted. Results were evaluated from 6 sections per muscle section, and 10 mice at each group.
as §1
In most hindlimb ischemia models, tissue necrosis generally occurs in the muscles below the knee. For example, tibialis anterior muscle, which is distant to the gracilis muscle where the treatment was administered, often undergoes extensive necrosis with regeneration after femoral artery excision. The intensity of Masson's trichrome blue color staining depended on the content of collagen fibers in the investigated tissue, and fibrosis is the result of necrosis. […] Results from representative samples are illustrated in FIGS. 4A and 4B.
Statistical analyses regarding injured area (necrotic area+fibrotic area) and numbers of centrally nucleated fibers were also performed at two weeks after the surgery, and the results were summarized in Table 2. The injured area is expressed as the percent of total stained area (%), and the centrally nucleated fibers is expressed as the total number of muscle fibers counted (%).

aortic ring explants = assay: rat aortic ring sprouting assay (ex vivo neovessel sprouting); format: cell-based; conditions: day 4; 50 ng/ml PEDF peptide, 50 ng/ml VEGF-A, 20 ng/ml FGF-2; MCDB131, 1% FBS, Matrigel
Protocol: To further confirm the neovessel development promoted by PEDF peptides, rat aortic ring sprouting assay was performed. Thoracic aortas were removed from euthanized rats and gently stripped of peri-aortic fibroadipose tissue. Aortas were sectioned into about 2-mm length rings, which were then embedded in a growth factor-reduced Matrigel. Gels containing the aortic rings were polymerized in 12-well plates incubated at 37° C. for 30 minutes. 1 ml of MCDB131 medium supplemented with 100 units/ml penicillin and […] streptomycin, 1% FBS, and a supplemental agent (50 ng/ml VEGF-A, 20 ng/ml FGF-2, or 50 ng/ml 29-mer, 24-mer, 20-mer, Mo 29-mer, Mo 20-mer, 25-mer, or 18-mer) were added to the Matrigel-containing explants. The cultures were propagated at 37° C. in a humidified incubator for up to 4 days, with media changes every other day. Neovessel sprouting was assessed until day 4 using an inverted microscope platform (Leica) with bright-field optics; representative photographs were provided in FIG. 6. Quantification of neovessel sprouting was assessed using Image-Pro Plus 6.0 software (Dendrites program). The experiment was repeated in triplicate.

tendo Achilles = tendo Achilles injury model, histology and collagen in regenerated area; format: in vivo, Sprague-Dawley rats; conditions: three weeks after tendon injury; for Collagen in Regenerated Area (%): 150 μl sustained-release formulation (Bolus: bolus 29-mer) subcutaneously near tendon lesion
Protocol: De-paraffinized tendon tissue sections were stained using Masson's Trichrome according to the manufacturer's instructions. For semi-quantitative analysis of collagen area, 10 fields from each slide were randomly selected under a light microscope, and the repairing area per intact tendon area of the cross section (mm^2/mm^2) was measured using the Image-Pro Plus 4.5.1 system.
To investigate the effects of the present PEDF peptides on tendon regeneration, a rat model with tendon injury was established as follows. Adult 10-week-old male Sprague-Dawley rats (total n=50; initial body weight=312±11 g) were anesthetized by an intraperitoneal injection of a xylazine (10 mg/kg). Then, the left tendo Achilles injury was created by full-thickness insertion of an 18-gauge needle through tendo Achilles 1 cm proximal to its insertion into the calcaneum. This created a horizontal (transaction) wound which was flanked by intact tendon tissue on both sides to prevent the retraction of severed ends.
The rats were randomly assigned (n=10/group) to five experimental groups and treated as follows. In the blank control group, the mice were treated with 150 μl of blank alginate gel. For the bolus control group, 150 μl of the bolus formulation (29-mer) was administered. In the treatments groups, the mice received 150 μl of the sustained-release formulation (29-mer, 24-mer, or 20-mer). Treatments were injected subcutaneously near tendon lesion immediately after the injury, and the incision was closed after the wound was irrigated with sterile saline.
Three weeks after tendon injury, histologic analysis was performed to observe the healing of the tendon. As could be seen in the upper panel of FIG. 10, in animals treated with blank control, a broad band of disorganized fibrous scar was formed between the two cut ends, and the pink stained collagen bundle was minimal in the scar tissue. […] Also, the fibrous tissue in the scar was more organized and in parallel direction in the 29-mer treatment group.
Quantitative analysis was also performed to assess the percentage of collagen (%) in the regenerated area, and results were summarized in Table 7.

Sequence | Ischemic/Non-ischemic Perfusion Ratio (%) 7 days (ischemic hindlimbs) | Ischemic/Non-ischemic Perfusion Ratio (%) 21 days (ischemic hindlimbs) | Ischemic/Non-ischemic Perfusion Ratio (%) 28 days (ischemic hindlimbs) | Ischemic/Non-ischemic Perfusion Ratio (%) Pre OP (ischemic hindlimbs) | Ischemic/Non-ischemic Perfusion Ratio (%) Post OP (ischemic hindlimbs) | Centrally nucleated fibers (%) (tibialis anterior muscle) | Injured Area (%) (necrotic area + fibrotic area, percent of total stained area) (tibialis anterior muscle) | Neovessel Sprouting Fold (aortic ring explants) | Collagen in Regenerated Area (%) (tendo Achilles) | tendon healing, histology of cut ends (tendo Achilles; sustained-release formulation, in words)
SLGAEQRTESIIHRALYYDL [20-mer, synthetic peptide corresponding to residues 93-112 of human PEDF] | 43.3 ± 7.2 % | 75.5 ± 5.2 % | 93% and 92.7 ± 3.0 % | 98.0 ± 7.8% | 4.6 ± 0.64% | 61.2 ± 5.8 % | 38.0 ± 5.2 % | 6.5* fold of untreated aortic ring | 82.01 ± 6.55% | –
SLGAEQRTESIIHRALYYDLISSP [24-mer, synthetic peptide corresponding to residues 93-116 of human PEDF] | 53.1 ± 0.37 % | 86.1 ± 5.9 % | 92% and 91.8 ± 5.5 % | 91.5 ± 5.6% | 8.0 ± 0.03% | 67.8 ± 5.3 % | 36.8 ± 5.5 % | 6.2* fold of untreated aortic ring | 85.75 ± 2.56% | –
SLGAEQRTESIIHRALYYDLISSPDIHGT [29-mer, synthetic peptide corresponding to residues 93-121 of human PEDF] | 44.8 ± 2.0 % | 101 ± 7.0 % | 105% and 105 ± 4.8 % | 108.2 ± 8.8% | 7.0 ± 3.1% | 72.5 ± 5.2 % | 39.5 ± 4.2 % | 5.6* fold of untreated aortic ring | 88.75 ± 1.89% | healed with much lesser scar tissue
